Data taken from patent publication US20250082931A1, “Treating Gastric Cancer Using TTFields Combined with XELOX, FOLFOX or the Individual Constituents Thereof” (Novocure GmbH, priority 2019, published 2025).

Legend:
AGS cells [1] = test: Apoptosis analysis by Annexin V / 7AAD staining; assay type: cell-based; settings: for AnnV+ 7AAD+ cell fraction / AnnV+ 7AAD− cell fraction / AnnV− 7AAD+ cell fraction / AnnV− 7AAD− cell fraction: 72 h
Experimental: (§1) After 72 h of treatment the media and the cells were collected, and cytotoxicity was determined by cell counts. Cells (including cells from the media) were stained for Annexin V and 7AAD for apoptosis analysis. For the testing of the clonogenic effect, cells were seeded for colonies.
(§2) Cells were seeded on inovitro dishes and petri dishes 24 h before starting the experiments. Media containing the indicated concentration of each chemotherapy component alone or FOLFOX and control media was added to the cells and the dishes were connected to TTFields (as in SOP-BI-009) or grown in 37° C., 5% CO2 for 72 h. Each treatment included 8 repeats (8 dishes). The media was replaced every 24 h. At the end of the experiment the cells were collected, and cytotoxicity was determined by cell counts, small number of cells were seeded for colonies and the cells (including cells from the media) were stained for Annexin V and 7AAD for apoptosis analysis.
(§3) Apoptotic effect: Average of cell fraction of each marker staining (Annexin V and 7AAD) of at least 5 dishes from each treatment was calculated in Excel software. The averages from these repeats was calculated to averages and is presented in stacked bar graph using GraphPed software.

AGS cells [2] = test: Clonogenic effect (colonies count); assay type: cell-based; settings: for colonies count: 72 h
Experimental: (§4) After 72 h of treatment the media and the cells were collected, and cytotoxicity was determined by cell counts. […] For the testing of the clonogenic effect, cells were seeded for colonies.
(§5) After 6-14 days the colonies were fixed, stained and counted to determine clonogenic effect. The overall effect was calculated by multiplying the cytotoxic effect and the clonogenic effect.
(§6) Clonogenic effect: The colonies from each well were counted using ImageJ software. Average and standard deviation of colony number of at least 5 wells from each treatment were calculated in excel software. The averages from these repeats was calculated to averages and standard errors and is presented as percent from control (no drug treatment) in XY graph of points with error bars using GraphPed software. Significant was determine by 2-way ANOVA followed Multiple comparison using GraphPed software.

AGS cells [3] = test: Overall effect (cytotoxic effect x clonogenic effect); assay type: cell-based; settings: 72 h
Experimental: as §5
(§7) Overall effect: Each colony number was multiply in the percent of cytotoxic effect of its dish and averages and standard deviations of each treatment were calculated in Excel software. […] Significant was determine by 2-way ANOVA followed Multiple comparison using GraphPed software.

KATO III cells [4] = test: Apoptosis analysis by Annexin V / 7AAD staining; assay type: cell-based; settings: for AnnV+ 7AAD+ cell fraction / AnnV+ 7AAD− cell fraction / AnnV− 7AAD+ cell fraction / AnnV− 7AAD− cell fraction: 72 h
Experimental: as §1, §2, §3

AGS cells [5] = test system: AGS cells
Experimental: (§8) During the treatment the media of all dishes was replaced every 24 h (“hours”).
(§9) After 72 h of treatment the media and the cells were collected, and cytotoxicity was determined by cell counts.
as §2
(§10) A TTFields generator (Inovitro systems) was used to apply the treatment to the cells.
(§11) Cytotoxic effect: Average and standard deviation of cell number of at least 5 dishes from each treatment was calculated in Excel software. The averages from these repeats was calculated to averages and standard error and is presented as percent from control (no drug treatment) in XY graph of points with error bars using GraphPed software. Significant was determine by 2-way ANOVA followed Multiple comparison using GraphPed software.

KATO III cells [6] = test system: KATO III cells
Experimental: as §8, §9, §2, §10, §11

KATO III cells [7] = test: Clonogenic effect (colonies count); settings: for colonies count: 72 h, one experiment;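 as to all read-outs here: after treatment, KATO III cells were reseeded and grown 6–14 days, then colonies were fixed, stained and counted, expressed as percent of untreated (no drug) control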
Experimental: as §4, §5, §6

KATO III cells [8] = test: Overall effect (cytotoxic effect x clonogenic effect); settings: 72 h, one experiment
Experimental: as §5, §7

AGS cells [9] = test: Cytotoxic effect by cell count after 72 h, with and without TTFields
Experimental: as §8, §9, §2, §10, §11

KATO III cells [10] = test: as above
Experimental: as §8, §9, §2, §10, §11

[11] = 0.2 uM, + TTFields 150 kHz 1.0 V/cm, one experiment
[12] = 0.2 uM, no TTFields, one experiment
[13] = 5 uM, + TTFields 150 kHz 1.0 V/cm, one experiment
[14] = 5 uM, no TTFields, one experiment
[15] = 10 uM, + TTFields 150 kHz 1.0 V/cm, one experiment
[16] = 10 uM, no TTFields, one experiment
[17] = FOLFOX experiment, 5 uM, + TTFields 150 kHz 1.0 V/cm
[18] = FOLFOX experiment, 5 uM, no TTFields
[19] = 1 uM, + TTFields 150 kHz 1.0 V/cm, one experiment
[20] = 1 uM, no TTFields, one experiment
[21] = 2.5 uM, + TTFields 150 kHz 1.6 V/cm, one experiment
[22] = 2.5 uM, no TTFields, one experiment
[23] = 5 uM, + TTFields 150 kHz 1.6 V/cm, one experiment
[24] = 10 uM, + TTFields 150 kHz 1.6 V/cm, one experiment
[25] = FOLFOX experiment, 10 uM, + TTFields 150 kHz 1.6 V/cm
[26] = FOLFOX experiment, 10 uM, no TTFields
[27] = 2.5 uM, + TTFields 150 kHz 1.6 V/cm
[28] = 5 uM, + TTFields 150 kHz 1.6 V/cm
[29] = 10 uM, + TTFields 150 kHz 1.6 V/cm

Nc1nc2c(c(=O)[nH]1)N(C=O)C(CNc1ccc(C(=O)N[C@@H](CCC(=O)O)C(=O)O)cc1)CN2 (stereo partly drawn) [Leucovorin] was tested, and the “AnnV+ 7AAD+ cell fraction” value (AGS cells [1]; [11]) was 5.34%, the “AnnV+ 7AAD− cell fraction” value (AGS cells [1]; [11]) was 4.69% and the “AnnV− 7AAD+ cell fraction” value (AGS cells [1]; [11]) was 2.18%. For the same molecule, the “AnnV− 7AAD− cell fraction” value (AGS cells [1]; [11]) was 87.79%, the “AnnV+ 7AAD+ cell fraction” value (AGS cells [1]; [12]) was 2.25% and the “AnnV+ 7AAD− cell fraction” value (AGS cells [1]; [12]) was 3.42%. The “AnnV− 7AAD+ cell fraction” value (AGS cells [1]; [12]) was 2.19%, the “AnnV− 7AAD− cell fraction” value (AGS cells [1]; [12]) was 92.14% and the “AnnV+ 7AAD+ cell fraction” value (AGS cells [1]; [13]) was 5.55%. For the same molecule, the “AnnV+ 7AAD− cell fraction” value (AGS cells [1]; [13]) was 5.61%, the “AnnV− 7AAD+ cell fraction” value (AGS cells [1]; [13]) was 3.04% and the “AnnV− 7AAD− cell fraction” value (AGS cells [1]; [13]) was 85.8%. For the same molecule, the “AnnV+ 7AAD+ cell fraction” value (AGS cells [1]; [14]) was 2.29%, the “AnnV+ 7AAD− cell fraction” value (AGS cells [1]; [14]) was 4.12% and the “AnnV− 7AAD+ cell fraction” value (AGS cells [1]; [14]) was 1.02%. The “AnnV− 7AAD− cell fraction” value (AGS cells [1]; [14]) was 92.57%, the “AnnV+ 7AAD+ cell fraction” value (AGS cells [1]; [15]) was 3.74% and the “AnnV+ 7AAD− cell fraction” value (AGS cells [1]; [15]) was 6.27%. The “AnnV− 7AAD+ cell fraction” value (AGS cells [1]; [15]) was 2.72%, the “AnnV− 7AAD− cell fraction” value (AGS cells [1]; [15]) was 87.27% and the “AnnV+ 7AAD+ cell fraction” value (AGS cells [1]; [16]) was 2.84%. The “AnnV+ 7AAD− cell fraction” value (AGS cells [1]; [16]) was 5.62%, the “AnnV− 7AAD+ cell fraction” value (AGS cells [1]; [16]) was 1.01% and the “AnnV− 7AAD− cell fraction” value (AGS cells [1]; [16]) was 90.54%. The “AnnV+ 7AAD+ cell fraction” value (AGS cells [1]; [17]) was 10.2%, the “AnnV+ 7AAD− cell fraction” value (AGS cells [1]; [17]) was 6.6% and the “AnnV− 7AAD+ cell fraction” value (AGS cells [1]; [17]) was 2.4%. For the same molecule, the “AnnV− 7AAD− cell fraction” value (AGS cells [1]; [17]) was 80.7%, the “AnnV+ 7AAD+ cell fraction” value (AGS cells [1]; [18]) was 4.3% and the “AnnV+ 7AAD− cell fraction” value (AGS cells [1]; [18]) was 5.3%. The “AnnV− 7AAD+ cell fraction” value (AGS cells [1]; [18]) was 2.6%, the “AnnV− 7AAD− cell fraction” value (AGS cells [1]; [18]) was 87.7% and the “apoptotic effect of drug alone” value (AGS cells [1]; without TTFields) was “does not show”. For the same molecule, the colonies count (AGS cells [2]; [11]) was 70 % from control, the colonies count (AGS cells [2]; [12]) was 88 % from control and the colonies count (AGS cells [2]; [19]) was 77 % from control. It also gave a colonies count (AGS cells [2]; [20]) of 87 % from control, a colonies count (AGS cells [2]; [13]) of 70 % from control and a colonies count (AGS cells [2]; [14]) of 95 % from control. The colonies count (AGS cells [2]; [17]) was 69 % from control, the colonies count (AGS cells [2]; [18]) was 103 % from control and the “clonogenic effect of drug alone” value (AGS cells [2]; without TTFields) was “does not show”. For the same molecule, the “overall effect (colonies count multiplying the cytotoxic effect)” value (shortened to “overall effect”) (AGS cells [3]; [11]) was 42.9 % from control, the “overall effect” value (AGS cells [3]; [12]) was 86.6 % from control and the “overall effect” value (AGS cells [3]; [19]) was 36.7 % from control. For the same molecule, the “overall effect” value (AGS cells [3]; [20]) was 89.7 % from control, the “overall effect” value (AGS cells [3]; [13]) was 41.7 % from control and the “overall effect” value (AGS cells [3]; [14]) was 88.8 % from control. The “overall effect” value (AGS cells [3]; [17]) was 41 % from control, the “overall effect” value (AGS cells [3]; [18]) was 88 % from control and the “AnnV+ 7AAD+ cell fraction” value (KATO III cells [4]; [21]) was 18.45%. The “AnnV+ 7AAD− cell fraction” value (KATO III cells [4]; [21]) was 39.43%, the “AnnV− 7AAD+ cell fraction” value (KATO III cells [4]; [21]) was 0.3% and the “AnnV− 7AAD− cell fraction” value (KATO III cells [4]; [21]) was 41.82%. The “AnnV+ 7AAD+ cell fraction” value (KATO III cells [4]; [22]) was 8.51%, the “AnnV+ 7AAD− cell fraction” value (KATO III cells [4]; [22]) was 24.86% and the “AnnV− 7AAD+ cell fraction” value (KATO III cells [4]; [22]) was 0.06%. The “AnnV− 7AAD− cell fraction” value (KATO III cells [4]; [22]) was 66.57%, the “AnnV+ 7AAD+ cell fraction” value (KATO III cells [4]; [23]) was 25.55% and the “AnnV+ 7AAD− cell fraction” value (KATO III cells [4]; [23]) was 36.56%. For the same molecule, the “AnnV− 7AAD+ cell fraction” value (KATO III cells [4]; [23]) was 0.2%, the “AnnV− 7AAD− cell fraction” value (KATO III cells [4]; [23]) was 37.69% and the “AnnV+ 7AAD+ cell fraction” value (KATO III cells [4]; [14]) was 9.4%. For the same molecule, the “AnnV+ 7AAD− cell fraction” value (KATO III cells [4]; [14]) was 36.5%, the “AnnV− 7AAD+ cell fraction” value (KATO III cells [4]; [14]) was 0.12% and the “AnnV− 7AAD− cell fraction” value (KATO III cells [4]; [14]) was 53.98%. The “AnnV+ 7AAD+ cell fraction” value (KATO III cells [4]; [24]) was 28.48%, the “AnnV+ 7AAD− cell fraction” value (KATO III cells [4]; [24]) was 35.82% and the “AnnV− 7AAD+ cell fraction” value (KATO III cells [4]; [24]) was 0.4%. For the same molecule, the “AnnV− 7AAD− cell fraction” value (KATO III cells [4]; [24]) was 35.3%, the “AnnV+ 7AAD+ cell fraction” value (KATO III cells [4]; [16]) was 12.64% and the “AnnV+ 7AAD− cell fraction” value (KATO III cells [4]; [16]) was 39.85%. For the same molecule, the “AnnV− 7AAD+ cell fraction” value (KATO III cells [4]; [16]) was 1.01%, the “AnnV− 7AAD− cell fraction” value (KATO III cells [4]; [16]) was 46.5% and the “AnnV+ 7AAD+ cell fraction” value (KATO III cells [4]; [25]) was 33.83%. The “AnnV+ 7AAD− cell fraction” value (KATO III cells [4]; [25]) was 18.24%, the “AnnV− 7AAD+ cell fraction” value (KATO III cells [4]; [25]) was 1.32% and the “AnnV− 7AAD− cell fraction” value (KATO III cells [4]; [25]) was 46.62%. For the same molecule, the “AnnV+ 7AAD+ cell fraction” value (KATO III cells [4]; [26]) was 24.39%, the “AnnV+ 7AAD− cell fraction” value (KATO III cells [4]; [26]) was 12.36% and the “AnnV− 7AAD+ cell fraction” value (KATO III cells [4]; [26]) was 0.80%. For the same molecule, the “AnnV− 7AAD− cell fraction” value (KATO III cells [4]; [26]) was 62.46%, the “apoptotic effect of drug alone” value (KATO III cells [4]; without TTFields) was “does not show” and the “cytotoxic effect of drug alone” value (AGS cells [5]) was “does not show”. For the same molecule, the “cytotoxic effect of drug alone” value (KATO III cells [6]) was “does not show”, the colonies count (KATO III cells [7]; [27]) was 60 % from control and the colonies count (KATO III cells [7]; 2.5 uM, no TTFields) was 100 % from control. The colonies count (KATO III cells [7]; [28]) was 68 % from control, the colonies count (KATO III cells [7]; 5 uM, no TTFields) was 79 % from control and the colonies count (KATO III cells [7]; [29]) was 62 % from control. The colonies count (KATO III cells [7]; 10 uM, no TTFields) was 91 % from control, the “clonogenic effect of drug alone” value (KATO III cells [7]; without TTFields) was “does not show” and the “overall effect” value (KATO III cells [8]; [27]) was 32 % from control. The “overall effect” value (KATO III cells [8]; 2.5 uM, no TTFields) was 106 % from control, the “overall effect” value (KATO III cells [8]; [28]) was 35 % from control and the “overall effect” value (KATO III cells [8]; 5 uM, no TTFields) was 81 % from control. For the same molecule, the “overall effect” value (KATO III cells [8]; [29]) was 27 % from control, the “overall effect” value (KATO III cells [8]; 10 uM, no TTFields) was 78 % from control and the cell count (AGS cells [9]; 0.2 uM, + TTFields 150 kHz 1.0 V/cm) was 44 % from control. For the same molecule, the cell count (AGS cells [9]; 0.2 uM, no TTFields) was 88 % from control, the cell count (AGS cells [9]; 1 uM, + TTFields 150 kHz 1.0 V/cm) was 46.5 % from control and the cell count (AGS cells [9]; 1 uM, no TTFields) was 84 % from control. The cell count (AGS cells [9]; 5 uM, + TTFields 150 kHz 1.0 V/cm) was 45 % from control, the cell count (AGS cells [9]; 5 uM, no TTFields) was 77 % from control and the cell count (AGS cells [9]; [17]) was 59 % from control. For the same molecule, the cell count (AGS cells [9]; [18]) was 83 % from control, the cell count (KATO III cells [10]; [21]) was 58 % from control and the cell count (KATO III cells [10]; [22]) was 106 % from control. It also gave a cell count (KATO III cells [10]; [23]) of 51 % from control, a cell count (KATO III cells [10]; [14]) of 107 % from control and a cell count (KATO III cells [10]; [24]) of 47 % from control. For the same molecule, the cell count (KATO III cells [10]; [16]) was 90 % from control, the cell count (KATO III cells [10]; FOLFOX experiment, 5 uM, + TTFields 150 kHz 1.6 V/cm) was 49 % from control and the cell count (KATO III cells [10]; [18]) was 102 % from control.
